Test results reported in patent publication US20240408126A1, “BACTERIAL CAPSULAR OLIGOSACCHARIDE DERIVATIVE, PREPARATION METHOD THEREFOR, PHARMACEUTICAL COMPOSITION AND USE THEREOF” (PEKING UNIVERSITY, priority 2021, published 2024).

Tests used:
[1] = tested on: LPS-induced inflammatory factors in serum; assay: LPS-induced cytokines in serum of sepsis mouse model (CP-Me); assay type: in vivo, male C57BL/6 mice; details: 10 mg/kg and 3 mg/kg intraperitoneal, two times; LPS 25 mg/kg; serum after 12 hours; IL-1β, IL-6, TNF-α; FIG. 7
Protocol: A total of 24 male C57BL/6 mice aged 6-8 weeks, weighing 20±2 g, were selected. The mice were placed in a feeding room with temperature of 20-24° C. and humidity of 50%-60%, and were allowed to drink and eat freely. They were adaptively raised for 7 days before the experiment. Mice were randomly divided into four groups: control group, CP-Me group, LPS group and LPS+CP-Me group, with 6 mice in each group. CP-Me 10 mg/kg group and CP-Me 3 mg/kg group were intraperitoneally injected with 200 μL CP-Me solution at the concentrations of 10 mg/kg and 3 mg/kg, while the control group and LPS group were intraperitoneally injected with equal volume of 0.9% normal saline. LPS group was injected intraperitoneally with 200 μL LPS solution at 25 mg/kg for modeling. Each group was administered once for a total of two times, 12 hours before modeling and 30 minutes after modeling. After 12 hours of administration, the mice were anesthetized and blood was taken from the heart. After the blood stood for 2 hours, it was centrifuged at 5000 rpm for 10 minutes to collect serum. According to the instructions of Elisa kit, the absorbance of each hole was detected by using a multifunctional enzyme-labeled instrument at the wavelength of 450 nm, and the contents of cytokines IL-1β, IL-6, and TNF-α were calculated according to the standard curve.

[2] = tested on: LPS-induced sepsis model; assay: LPS-induced survival rate in sepsis model of mice; assay type: in vivo, male C57BL/6 mice; details: three times, LPS 45 mg/kg, after 72 hours, model group 40%
Protocol: A total of 60 male C57BL/6 mice aged 6-8 weeks, weighing 20±2 g, were selected. The mice were placed in a feeding room with temperature of 20-24° C. and humidity of 50%-60%, and were allowed to drink and eat freely. They were adaptively raised for 7 days before the experiment.
The mice were randomly divided into six groups: control group, model group, CP-1 high dose group (30 mg/kg), CP-1 middle dose group (10 mg/kg), CP-1 low dose group (3 mg/kg), and dexamethasone group, with 10 mice in each group. CP-1 high-dose group was intraperitoneally injected with 200 μL CP-1 solution at the concentration of 30 mg/kg, CP-1 middle-dose group was intraperitoneally injected with equal volume of CP-1 solution at the concentration of 10 mg/kg, CP-1 low-dose group was intraperitoneally injected with equal volume of CP-1 solution at the concentration of 3 mg/kg, dexamethasone group was intraperitoneally injected with equal volume of dexamethasone solution at the concentration of 30 mg/kg, and control group was intraperitoneally injected with equal volume of 0.9% normal saline. Except for the control group, all groups were intraperitoneally injected with 200 μL of LPS solution at 45 mg/kg for modeling. Each group was administered once for a total of three times, 48 hours and 24 hours before modeling, and 30 minutes after modeling. After administration, the state and survival rate of mice were observed and recorded every 6 hours for 72 hours.

CO[C@@H]1OC(CO)[C@H](O)C(O[C@H]2OC(C(=O)O)[C@H](O)C(O)C2O[C@@H]2OC(CO)[C@@H](O)C(O[C@@H]3OC(C(=O)O)[C@@H](O)C(O)C3O)C2NC(C)=O)C1NC(C)=O (stereo partly drawn) [CP-Me, methyl β-D-glucopyranuronic acid-(1→3)-2-deoxy-2-acetylamino-β-D-glucopyranosyl-(1→2)-α-D-galactopyranoic acid-(1→3)-2-deoxy-2-acetylamino-α,β-D-galactopyranoside]
effect on LPS-induced inflammatory factors in serum [1]: inhibitory effect

C[C@@H]1C[C@H]2[C@@H]3CCC4=CC(=O)C=C[C@]4(C)[C@@]3(F)[C@@H](O)C[C@]2(C)[C@@]1(O)C(=O)CO [dexamethasone, reference compound]
survival rate of mice ([2]; 30 mg/kg intraperitoneal): 60%

CC(=O)NC1[C@H](OC2[C@@H](O[C@@H]3C(NC(C)=O)C(O)OC(CO)[C@@H]3O)OC(C(=O)O)[C@H](O)[C@@H]2O)OC(CO)[C@@H](O)[C@@H]1O[C@@H]1OC(C(=O)O)[C@@H](O)[C@H](O)C1O (stereo partly drawn) [CP-1, β-D-glucopyranuronic acid-(1→3)-2-deoxy-2-acetylamino-β-D-glucopyranosyl-(1→2)-α-D-galactopyranoic acid-(1→3)-2-deoxy-2-acetylamino-α,β-D-galactopyranoside]
survival rate of mice ([2]; 3 mg/kg (low dose) intraperitoneal): 70% | survival rate of mice ([2]; 10 mg/kg (middle dose) intraperitoneal): 80% | survival rate of mice ([2]; 30 mg/kg intraperitoneal): 70%
